Source: patent US20090253785A1, “Bactericide composition” (priority 2007, published 2009)

Tests used:
Type in all cases: cell-based
[1] = tested on: Methicillin-resistant Staphylococcus aureus (MRSA); assay: Quantitative test of bacterial suspension, MRSA; conditions: for Anti-bacteria ratio / Remaining bacteria: MRSA, incubated 24 hours
Description: (§1) S. aureus, E. coli, MRSA and P. acnes were respectively prepared to form a suspension. The concentration of the suspension was about 1.5×10^8 CFU/ml (density=0.5 McFarland), and then was diluted 100 times (about 1.5×10^6 CFU/ml).
(§2) L-ascorbic acid solutions were prepared respectively in concentrations of 1 wt %, 5 wt %, 10 wt %, 15 wt %, 20 wt %, 25 wt % and 30 wt %. The different concentrations of L-ascorbic acid solutions were used as a test. A hydrochloric acid solution and distilled water were used respectively as a positive control and a negative control, and the pH value of the hydrochloric acid solution was the same of the pH value of the 25 wt % L-ascorbic acid solution.
(§3) 1 ml bacterial suspension was added to a 9 ml L-ascorbic acid solution for testing, and equal amounts of the bacterial suspension were added respectively to the positive control of 9 ml hydrochloric acid solution and the negative control of 9 ml distilled water, and then all solutions were incubated for 24 hours.
(§4) After incubating for 24 hours, all the solutions were series diluted, until diluted 1000 times to form a series of dilution solutions.
(§5) To calculate bacteria remaining in the solutions, 0.2 ml of each series of dilution solutions were cultured respectively on Petri dishes and repeated twice.
(§6) Each Petri dish was cultured in an incubator at 35±2° C. for 1˜2 days (S. aureus, E. coli) or for 2˜4 days (MRSA and P. acnes) to observe bacteria growth on Petri dish and the bacteria were counted.
(§7) Anti-bacterial ratio (%)=[(remaining bacteria of controls−remaining bacteria of test)/remaining bacteria of controls]×100%

[2] = tested on: Staphylococcus aureus (S. aureus); assay: Quantitative test of bacterial suspension, S. aureus; conditions: for Anti-bacteria ratio / Remaining bacteria: S. aureus, incubated 24 hours
Description: as §1, §2, §3, §4, §5, §6, §7

[3] = tested on: Propionibacterium acnes (P. acnes); assay: Quantitative test of bacterial suspension, P. acnes; conditions: for Anti-bacteria ratio / Remaining bacteria: P. acnes, incubated 24 hours
Description: as §1, §2, §3, §4, §5, §6, §7

[4] = tested on: Escherichia coli (E. coli); assay: Quantitative test of bacterial suspension, E. coli; conditions: for Anti-bacteria ratio / Remaining bacteria: E. coli, incubated 24 hours
Description: as §1, §2, §3, §4, §5, §6, §7

[5] = 1 wt % to 30 wt % solution, incubating for 24 hours
[6] = positive control solution, pH 1.68

Question: How did the “remaining MRSA found” value ([1]; 5 wt % to 30 wt % solution, incubating for 24 hours) turn out when `O=C1O[C@H]([C@@H](O)CO)C(O)=C1O` [L-ascorbic acid] was run?
Answer: Its value is “no remaining”.

Question: And the Anti-bacteria ratio ([1]; 1% solution, pH 2.70)?
Answer: The Anti-bacteria ratio was 99.99%.

Question: What about the Remaining bacteria ([1]; 1% solution, pH 2.70) of the same compound?
Answer: The Remaining bacteria was 2.0 × 10^3 CFU/mL.

Question: And the Anti-bacteria ratio ([1]; 5% solution, pH 2.28)?
Answer: Its Anti-bacteria ratio is 100%.

Question: What about the Remaining bacteria ([1]; 5% solution, pH 2.28) of the same compound?
Answer: The Remaining bacteria was 0 CFU/mL.

Question: And the Anti-bacteria ratio ([1]; 10% solution, pH 2.05)?
Answer: The Anti-bacteria ratio was 100%.

Question: What about the Remaining bacteria ([1]; 10% solution, pH 2.05) of the same compound?
Answer: The Remaining bacteria was 0 CFU/mL.

Question: And the Anti-bacteria ratio ([1]; 15% solution, pH 1.93)?
Answer: The Anti-bacteria ratio was 100%.

Question: What about the Remaining bacteria ([1]; 15% solution, pH 1.93) of the same compound?
Answer: Its Remaining bacteria is 0 CFU/mL.

Question: What about the Anti-bacteria ratio ([1]; 20% solution, pH 1.80) of the same compound?
Answer: The Anti-bacteria ratio was 100%.

Question: What about the Remaining bacteria ([1]; 20% solution, pH 1.80) of the same compound?
Answer: Its Remaining bacteria is 0 CFU/mL.

Question: And the Anti-bacteria ratio ([1]; 25% solution, pH 1.68)?
Answer: Its Anti-bacteria ratio is 100%.

Question: What about the Remaining bacteria ([1]; 25% solution, pH 1.68) of the same compound?
Answer: Its Remaining bacteria is 0 CFU/mL.

Question: And the Anti-bacteria ratio ([1]; 30% solution, pH 1.59)?
Answer: The Anti-bacteria ratio was 100%.

Question: And the Remaining bacteria ([1]; 30% solution, pH 1.59)?
Answer: Its Remaining bacteria is 0 CFU/mL.

Question: And the “remaining S. aureus found” value ([2]; 15 wt % to 30 wt % solution, incubating for 24 hours)?
Answer: The value was “no remaining”.

Question: What about the Anti-bacteria ratio ([2]; 1% solution, pH 2.70) of the same compound?
Answer: The Anti-bacteria ratio was 99.72%.

Question: What about the Remaining bacteria ([2]; 1% solution, pH 2.70) of the same compound?
Answer: The Remaining bacteria was 2.5 × 10^4 CFU/mL.

Question: And the Anti-bacteria ratio ([2]; 5% solution, pH 2.28)?
Answer: Its Anti-bacteria ratio is 99.97%.

Question: And the Remaining bacteria ([2]; 5% solution, pH 2.28)?
Answer: The Remaining bacteria was 3.0 × 10^3 CFU/mL.

Question: And the Anti-bacteria ratio ([2]; 10% solution, pH 2.05)?
Answer: Its Anti-bacteria ratio is 99.99%.

Question: What about the Remaining bacteria ([2]; 10% solution, pH 2.05) of the same compound?
Answer: Its Remaining bacteria is 2.0 × 10^2 CFU/mL.

Question: What about the Anti-bacteria ratio ([2]; 15% solution, pH 1.93) of the same compound?
Answer: Its Anti-bacteria ratio is 100%.

Question: And the Remaining bacteria ([2]; 15% solution, pH 1.93)?
Answer: Its Remaining bacteria is 0 CFU/mL.

Question: What about the Anti-bacteria ratio ([2]; 20% solution, pH 1.80) of the same compound?
Answer: The Anti-bacteria ratio was 100%.

Question: What about the Remaining bacteria ([2]; 20% solution, pH 1.80) of the same compound?
Answer: Its Remaining bacteria is 0 CFU/mL.

Question: What about the Anti-bacteria ratio ([2]; 25% solution, pH 1.68) of the same compound?
Answer: Its Anti-bacteria ratio is 100%.

Question: What about the Remaining bacteria ([2]; 25% solution, pH 1.68) of the same compound?
Answer: The Remaining bacteria was 0 CFU/mL.

Question: And the Anti-bacteria ratio ([2]; 30% solution, pH 1.59)?
Answer: Its Anti-bacteria ratio is 100%.

Question: What about the Remaining bacteria ([2]; 30% solution, pH 1.59) of the same compound?
Answer: The Remaining bacteria was 0 CFU/mL.

Question: What about the “remaining P. acnes found in the Petri dishes” value [3, 5] of the same compound?
Answer: The value was “no remaining”.

Question: What about the Anti-bacteria ratio ([3]; 1% solution, pH 2.70) of the same compound?
Answer: The Anti-bacteria ratio was 100%.

Question: What about the Remaining bacteria ([3]; 1% solution, pH 2.70) of the same compound?
Answer: The Remaining bacteria was 0 CFU/mL.

Question: And the Anti-bacteria ratio ([3]; 5% solution, pH 2.28)?
Answer: Its Anti-bacteria ratio is 100%.

Question: What about the Remaining bacteria ([3]; 5% solution, pH 2.28) of the same compound?
Answer: The Remaining bacteria was 0 CFU/mL.

Question: What about the Anti-bacteria ratio ([3]; 10% solution, pH 2.05) of the same compound?
Answer: Its Anti-bacteria ratio is 100%.

Question: What about the Remaining bacteria ([3]; 10% solution, pH 2.05) of the same compound?
Answer: Its Remaining bacteria is 0 CFU/mL.

Question: And the Anti-bacteria ratio ([3]; 15% solution, pH 1.93)?
Answer: Its Anti-bacteria ratio is 100%.

Question: What about the Remaining bacteria ([3]; 15% solution, pH 1.93) of the same compound?
Answer: Its Remaining bacteria is 0 CFU/mL.

Question: And the Anti-bacteria ratio ([3]; 20% solution, pH 1.80)?
Answer: Its Anti-bacteria ratio is 100%.

Question: And the Remaining bacteria ([3]; 20% solution, pH 1.80)?
Answer: Its Remaining bacteria is 0 CFU/mL.

Question: What about the Anti-bacteria ratio ([3]; 25% solution, pH 1.68) of the same compound?
Answer: The Anti-bacteria ratio was 100%.

Question: And the Remaining bacteria ([3]; 25% solution, pH 1.68)?
Answer: Its Remaining bacteria is 0 CFU/mL.

Question: And the Anti-bacteria ratio ([3]; 30% solution, pH 1.59)?
Answer: The Anti-bacteria ratio was 100%.

Question: What about the Remaining bacteria ([3]; 30% solution, pH 1.59) of the same compound?
Answer: Its Remaining bacteria is 0 CFU/mL.

Question: And the “remaining E. coli found in the Petri dishes” value [4, 5]?
Answer: Its value is “no remaining”.

Question: What about the Anti-bacteria ratio ([4]; 1% solution, pH 2.70) of the same compound?
Answer: The Anti-bacteria ratio was 100%.

Question: What about the Remaining bacteria ([4]; 1% solution, pH 2.70) of the same compound?
Answer: The Remaining bacteria was 0 CFU/mL.

Question: What about the Anti-bacteria ratio ([4]; 5% solution, pH 2.28) of the same compound?
Answer: The Anti-bacteria ratio was 100%.

Question: What about the Remaining bacteria ([4]; 5% solution, pH 2.28) of the same compound?
Answer: Its Remaining bacteria is 0 CFU/mL.

Question: What about the Anti-bacteria ratio ([4]; 10% solution, pH 2.05) of the same compound?
Answer: The Anti-bacteria ratio was 100%.

Question: And the Remaining bacteria ([4]; 10% solution, pH 2.05)?
Answer: Its Remaining bacteria is 0 CFU/mL.

Question: What about the Anti-bacteria ratio ([4]; 15% solution, pH 1.93) of the same compound?
Answer: The Anti-bacteria ratio was 100%.

Question: And the Remaining bacteria ([4]; 15% solution, pH 1.93)?
Answer: Its Remaining bacteria is 0 CFU/mL.

Question: And the Anti-bacteria ratio ([4]; 20% solution, pH 1.80)?
Answer: The Anti-bacteria ratio was 100%.

Question: And the Remaining bacteria ([4]; 20% solution, pH 1.80)?
Answer: The Remaining bacteria was 0 CFU/mL.

Question: What about the Anti-bacteria ratio ([4]; 25% solution, pH 1.68) of the same compound?
Answer: Its Anti-bacteria ratio is 100%.

Question: What about the Remaining bacteria ([4]; 25% solution, pH 1.68) of the same compound?
Answer: Its Remaining bacteria is 0 CFU/mL.

Question: What about the Anti-bacteria ratio ([4]; 30% solution, pH 1.59) of the same compound?
Answer: The Anti-bacteria ratio was 100%.

Question: And the Remaining bacteria ([4]; 30% solution, pH 1.59)?
Answer: Its Remaining bacteria is 0 CFU/mL.

Question: Which results are given for `Cl` [Hydrochloric acid, reference compound]?
Answer: Anti-bacteria ratio [2, 6]: 99.99%; Remaining bacteria [2, 6]: 18 CFU/mL; Anti-bacteria ratio [4, 6]: 100%; Remaining bacteria [4, 6]: 0 CFU/mL
